Experimental data from the CheMixHub viscosity set.

Test: xn = mol fraction of the nth substance listed

CCCCCC(=O)[O-].[NH3+]CCO + CCO
viscosity [mPa·s], 101 kPa
Details	x1 = 0.0135	x2 = 0.794	x2 = 0.8544	x2 = 0.9	x2 = 0.9391	x2 = 0.9563	x2 = 0.9719
293.15 K	1.548	13.46	7.158	4.35	2.76	2.28	1.86
298.15 K	1.428	11.38	6.24	3.87	2.472	2.046	1.74
303.15 K	1.29	9.792	5.43	3.39	2.22	1.848	1.512

CCOC(=O)OCC + Cc1ccc(C)cc1
viscosity [mPa·s]
Details	293.15 K	298.15 K	303.15 K	323.15 K
101 kPa, x1 = 0.0997	0.6494	0.6068	0.5681	0.4546
101 kPa, x1 = 0.1509	0.6571	0.6141	0.5733	0.4578
101 kPa, x1 = 0.2121	0.6663	0.6229	0.5814	0.4633
101 kPa, x1 = 0.2979	0.6785	0.6347	0.5918	0.4704
101 kPa, x1 = 0.3942	0.693	0.6486	0.6058	0.4794
101 kPa, x1 = 0.495	0.7081	0.6627	0.618	0.4891
101 kPa, x1 = 0.5955	0.7239	0.6787	0.6309	0.4973
101 kPa, x1 = 0.7004	0.7423	0.6948	0.6471	0.508
101 kPa, x1 = 0.8	0.7603	0.7126	0.6639	0.5178
101 kPa, x1 = 0.8891	0.7782	0.7304	0.6786	0.5292
101.3 kPa, x1 = 0.1027	–	0.607	–	–
101.3 kPa, x1 = 0.1721	–	0.615	–	–
101.3 kPa, x1 = 0.2449	–	0.622	–	–
101.3 kPa, x1 = 0.3566	–	0.636	–	–
101.3 kPa, x1 = 0.4208	–	0.643	–	–
101.3 kPa, x1 = 0.4919	–	0.658	–	–
101.3 kPa, x1 = 0.6427	–	0.68	–	–
101.3 kPa, x1 = 0.716	–	0.687	–	–
101.3 kPa, x1 = 0.7162	–	0.687	–	–
101.3 kPa, x1 = 0.8043	–	0.701	–	–
101.3 kPa, x1 = 0.9158	–	0.723	–	–
